According to patent US8268814B2, “Substituted sulfonamide compounds” (Gruenenthal GmbH, priority 2008, dated 2012):

How the values were obtained:
[1] = molecular target: T1, B1R receptor of the rat (rB1R) (Rattus norvegicus, UniProt P97583); assay: Functional FLIPR Ca2+ assay on the bradykinin 1 receptor, rat (rB1R CHO K1 cells); assay type: cell-based; conditions: test substance 10 μM; CHO K1 cells transfected with rat B1R gene; agonist Des-Arg9-bradykinin at EC80; % inhibition compared with maximum achievable inhibition; read-out: B1R antagonism, rat [10 μM] % inhibition
T1 construct: expressed in transfected cells; host or cells: CHO K1 cells (Chinese hamster ovary), stably transfected
T1 sequence (P97583 1-337): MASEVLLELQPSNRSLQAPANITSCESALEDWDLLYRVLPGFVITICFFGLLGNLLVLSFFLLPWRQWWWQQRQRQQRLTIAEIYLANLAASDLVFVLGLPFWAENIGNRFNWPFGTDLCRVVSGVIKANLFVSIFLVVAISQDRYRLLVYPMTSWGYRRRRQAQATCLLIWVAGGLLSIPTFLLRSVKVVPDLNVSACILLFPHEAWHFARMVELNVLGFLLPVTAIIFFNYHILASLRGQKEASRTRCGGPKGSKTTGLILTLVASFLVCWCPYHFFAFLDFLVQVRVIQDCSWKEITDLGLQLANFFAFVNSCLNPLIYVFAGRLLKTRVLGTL
In short: (§1)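 Stably transfected CHO K1 cells expressing human or rat B1R, Fluo-4-loaded, Ca2+ influx read by FLIPR (peak fluorescence). Compounds (10 μM for % activation) preincubated 10-20 min, then EC80 agonist added: Lys-Des-Arg9-bradykinin for human, Des-Arg9-bradykinin for rat; % inhibition versus maximal inhibition, IC50 from concentration series.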

[2] = molecular target: T2, human B1R receptor (hB1R) (Homo sapiens, UniProt P46663); assay: Functional FLIPR Ca2+ assay on the bradykinin 1 receptor, human (hB1R CHO K1 cells); assay type: cell-based; conditions: test substance 10 μM; CHO K1 cells transfected with human B1R gene; agonist Lys-Des-Arg9-bradykinin at EC80; % inhibition compared with maximum achievable inhibition; read-out: B1R antagonism, human (10 μM] % inhibition
T2 construct: expressed in transfected cells; host or cells: CHO K1 cells (Chinese hamster ovary), stably transfected
T2 sequence (P46663 1-353): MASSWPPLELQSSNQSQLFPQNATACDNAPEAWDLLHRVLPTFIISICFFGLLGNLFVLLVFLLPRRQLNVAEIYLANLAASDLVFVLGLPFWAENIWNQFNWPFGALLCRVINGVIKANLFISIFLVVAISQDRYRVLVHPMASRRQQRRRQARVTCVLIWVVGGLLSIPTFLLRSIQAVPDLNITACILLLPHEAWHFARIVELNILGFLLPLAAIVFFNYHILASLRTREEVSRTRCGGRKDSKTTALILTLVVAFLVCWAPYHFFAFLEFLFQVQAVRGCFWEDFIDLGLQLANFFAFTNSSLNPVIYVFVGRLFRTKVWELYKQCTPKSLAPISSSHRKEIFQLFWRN
In short: as §1

| inhibition at 10 µM [1] | inhibition at 10 µM [2] | SMILES |
| --- | --- | --- |
| 97% | 99% | COc1cc(C)c(S(=O)(=O)N2CCCCC2COCC(=O)N2CCc3nc(Cc4ccncc4)sc3C2)c(C)c1 (stereo not drawn) [Example 38, 2-((1-(4-methoxy-2,6-dimethylphenylsulfonyl)piperidin-2-yl)methoxy)-1-(2-(pyridin-4-ylmethyl)-6,7-dihydrothiazolo[5,4-c]pyridin-5(4H)-yl)ethan-1-one] |
| 104% | 64% | COc1cc(C)c(S(=O)(=O)N2CCCCC2COCC(=O)N2CCc3sccc3C2c2ccccc2C)c(C)c1 (stereo not drawn) [Example 12, 2-((1-(4-methoxy-2,6-dimethylphenylsulfonyl)piperidin-2-yl)methoxy)-1-(4-o-tolyl-6,7-dihydrothieno[3,2-c]pyridin-5(4H)-yl)ethanone] |
| 57% | 93% | Cc1cc(S(=O)(=O)N2CCCCC2CCC(=O)N2CCc3onc(CN4CCCCC4)c3C2)c(C)cc1Cl (stereo not drawn) [Example 06, 3-(1-(4-chloro-2,5-dimethylphenylsulfonyl)piperidin-2-yl)-1-(3-(piperidin-1-ylmethyl)-6,7-dihydroisoxazolo[4,5-c]pyridin-5(4H)-yl)propan-1-one] |
| 105% | 100% | COc1cc(C)c(S(=O)(=O)N2CCCCC2COCC(=O)N2CCc3onc(CN4CCCCC4)c3C2)c(C)c1 (stereo not drawn) [Example 09, 2-((1-(4-methoxy-2,6-dimethylphenylsulfonyl)piperidin-2-yl)methoxy)-1-(3-(piperidin-1-ylmethyl)-6,7-dihydroisoxazolo[4,5-c]pyridin-5(4H)-yl)ethanone] |
| 106% | 100% | Cc1cccc(Cl)c1S(=O)(=O)N(CCOCC(=O)N1CCc2sc(CN3CCCCC3)cc2C1)C1CC1 [Example 60, 2-chloro-N-cyclopropyl-6-methyl-N-[2-[2-oxo-2-[2-(piperidin-1-yl-methyl)-4,5,6,7-tetrahydro-thieno[3,2-c]pyridin-5-yl]-ethoxy]-ethyl]-benzenesulfonic acid amide] |
| 99% | 85% | COc1cc(C)c(S(=O)(=O)N2CCCCC2COCC(=O)N2CCc3onc(C(=O)N4CCCCC4)c3C2)c(C)c1 (stereo not drawn) [Example 14, 2-((1-(4-methoxy-2,6-dimethylphenylsulfonyl)piperidin-2-yl)methoxy)-1-(3-(piperidin-1-carbonyl)-6,7-dihydroisoxazolo[4,5-c]pyridin-5(4H)-yl)ethanone] |
| 100% | 73% | COc1cc(C)c(S(=O)(=O)N2CCCCC2COCC(=O)N2CCc3onc(-c4ccc(Cl)cc4)c3C2)c(C)c1 (stereo not drawn) [Example 24, 1-(3-(4-chlorophenyl)-6,7-dihydroisoxazolo[4,5-c]pyridin-5(4H)-yl)-2-((1-(4-methoxy-2,6-dimethylphenylsulfonyl)piperidin-2-yl)methoxy)ethanone] |
| 98% | 96% | COc1cc(C)c(S(=O)(=O)N2CCCCC2CCCC(=O)N2CCc3nc(-c4ccncc4)sc3C2)c(C)c1 (stereo not drawn) [Example 53, 4-(1-(4-methoxy-2,6-dimethylphenylsulfonyl)piperidin-2-yl)-1-(2-(pyridin-4-yl)-6,7-dihydrothiazolo[5,4-c]pyridin-5(4H)-yl)butan-1-one] |
| 106% | 100% | COc1cc(C)c(S(=O)(=O)N2CCCCC2COCC(=O)N2CCc3sc(CN4CCCCC4)cc3C2)c(C)c1 (stereo not drawn) [Example 27, 2-((1-(4-Methoxy-2,6-dimethylphenylsulfonyl)piperidin-2-yl)methoxy)-1-(2-(piperidin-1-ylmethyl)-6,7-dihydrothieno[3,2-c]pyridin-5(4H)-yl)ethanone] |

The next lines start with the compound.

| SMILES | inhibition at 10 µM [1] | inhibition at 10 µM [2] |
| --- | --- | --- |
| O=C(CC1CCCCN1S(=O)(=O)c1cccc(C(F)(F)F)c1)N1CCc2sccc2C1c1ccncc1 (stereo not drawn) [Example 54, 1-(4-pyridin-4-yl-4,5,6,7-tetrahydro-thieno[3,2-c]pyridin-5-yl)-2-[1-[[3-(trifluoromethyl)phenyl]sulfonyl]-piperidin-2-yl]-ethanone] | 101% | 16% |
| O=C(CC1CCCCN1S(=O)(=O)c1cccc(C(F)(F)F)c1)N1CCc2onc(CN3CCCCC3)c2C1 (stereo not drawn) [Example 05, 1-(3-(piperidin-1-ylmethyl)-6,7-dihydroisoxazolo[4,5-c]pyridin-5(4H)-yl)-2-(1-(3-(trifluoromethyl)phenylsulfonyl)piperidin-2-yl)ethanone] | 27% | 48% |
| Cc1cccc(Cl)c1S(=O)(=O)N(CCOCC(=O)N1CCc2sc(CN3CC(F)(F)C3)cc2C1)C1CC1 [Example 57, 2-Chloro-N-cyclopropyl-N-[2-[2-[2-[(3,3-difluoro-azetidin-1-yl)-methyl]-4,5,6,7-tetrahydro-thieno[3,2-c]pyridin-5-yl]-2-oxo-ethoxy]-ethyl]-6-methyl-benzenesulfonic acid amide] | 99% | 100% |
| Cc1cc(S(=O)(=O)N2CCCCC2CCC(=O)N2CCc3sccc3C2c2ccccc2C)c(C)cc1Cl (stereo not drawn) [Example 11, 3-(1-(4-chloro-2,5-dimethylphenylsulfonyl)piperidin-2-yl)-1-(4-o-tolyl-6,7-dihydrothieno[3,2-c]pyridin-5(4H)-yl)propan-1-one] | 60% | 7% |
| CN1CCN(Cc2cc3c(s2)CCN(C(=O)CC2CCCCN2S(=O)(=O)c2cccc(C(F)(F)F)c2)C3)CC1 (stereo not drawn) [Example 44, 1-(2-((4-methylpiperazin-1-yl)methyl)-6,7-dihydrothieno[3,2-c]pyridin-5(4H)-yl)-2-(1-(3-(trifluoromethyl)phenylsulfonyl)piperidin-2-yl)ethan-1-one] | 59% | 83% |
| Cc1ccc(C2c3ccsc3CCN2C(=O)C[C@@H](NS(=O)(=O)c2ccc3ccccc3c2)c2ccccc2)cc1 (stereo partly drawn) [Example 20, N-((1R)-3-oxo-1-phenyl-3-(4-p-tolyl-6,7-dihydrothieno[3,2-c]pyridin-5(4H)-yl)propyl)naphthalene-2-sulfonamide] | 96% | 11% |
| COc1cc(C)c(S(=O)(=O)N(C)CCOCC(=O)N2CCc3onc(CN4CCOCC4)c3C2)c(C)c1 [Example 30, 4-methoxy-N,2,6-trimethyl-N-(2-(2-(3-(morpholinomethyl)-6,7-dihydroisoxazolo[4,5-c]pyridin-5(4H)-yl)-2-oxoethoxy)ethyl)benzenesulfonamide] | 104% | 99% |
| COc1cc(C)c(S(=O)(=O)N2CCCCC2CCC(=O)N2CCc3nc(Cc4ccncc4)sc3C2)c(C)c1 (stereo not drawn) [Example 41, 3-(1-(4-methoxy-2,6-dimethylphenylsulfonyl)piperidin-2-yl)-1-(2-(pyridin-4-ylmethyl)-6,7-dihydrothiazolo[5,4-c]pyridin-5(4H)-yl)propan-1-one] | 99% | 64% |
| O=C(C[C@@H](NS(=O)(=O)c1ccc2ccccc2c1)c1ccccc1)N1CCc2sccc2C1c1ccc(F)cc1 (stereo partly drawn) [Example 21, N-((1R)-3-(4-(4-fluorophenyl)-6,7-dihydrothieno[3,2-c]pyridin-5(4H)-yl)-3-oxo-1-phenylpropyl)naphthalene-2-sulfonamide] | 70% | 34% |
| COc1cc(C)c(S(=O)(=O)N(C)CCOCC(=O)N2CCc3onc(CN(C)C)c3C2)c(C)c1 [Example 32, N-(2-(2-(3-((dimethylamino)methyl)-6,7-dihydroisoxazolo[4,5-c]pyridin-5(4H)-yl)-2-oxoethoxy)ethyl)-4-methoxy-N,2,6-trimethylbenzenesulfonamide] | 104% | 99% |
| COc1cc(C)c(S(=O)(=O)N2c3ccccc3CC[C@H]2COCC(=O)N2CCc3onc(-c4ccncc4)c3C2)c(C)c1 [Example 125, 2-[[(2S)-1-[(4-Methoxy-2,6-dimethyl-phenyl)sulfonyl]-1,2,3,4-tetrahydro-quinolin-2-yl]-methoxy]-1-(3-pyridin-4-yl-4,5,6,7-tetrahydro-isoxazolo[4,5-c]pyridin-5-yl)-ethanone] | 102% | 75% |
| COc1cc(C)c(S(=O)(=O)N(C)CCOCC(=O)N2CCc3nc(-c4ccncc4)sc3C2)c(C)c1 [Example 49, 4-methoxy-N,2,6-trimethyl-N-(2-(2-oxo-2-(2-(pyridin-4-yl)-6,7-dihydrothiazolo[5,4-c]pyridin-5(4H)-yl)ethoxy)ethyl)benzenesulfonamide] | 95% | 99% |
